For 13 molecules, IC50 results are on record in patent publication US20230081390A1, “INHIBITORS OF RAF KINASES” (Kinnate Biopharma Inc., priority 2019, published 2023).

A value given as a limit tells only on which side of the number the result lay.

Sequence of human RAF1 (P04049 whole entry): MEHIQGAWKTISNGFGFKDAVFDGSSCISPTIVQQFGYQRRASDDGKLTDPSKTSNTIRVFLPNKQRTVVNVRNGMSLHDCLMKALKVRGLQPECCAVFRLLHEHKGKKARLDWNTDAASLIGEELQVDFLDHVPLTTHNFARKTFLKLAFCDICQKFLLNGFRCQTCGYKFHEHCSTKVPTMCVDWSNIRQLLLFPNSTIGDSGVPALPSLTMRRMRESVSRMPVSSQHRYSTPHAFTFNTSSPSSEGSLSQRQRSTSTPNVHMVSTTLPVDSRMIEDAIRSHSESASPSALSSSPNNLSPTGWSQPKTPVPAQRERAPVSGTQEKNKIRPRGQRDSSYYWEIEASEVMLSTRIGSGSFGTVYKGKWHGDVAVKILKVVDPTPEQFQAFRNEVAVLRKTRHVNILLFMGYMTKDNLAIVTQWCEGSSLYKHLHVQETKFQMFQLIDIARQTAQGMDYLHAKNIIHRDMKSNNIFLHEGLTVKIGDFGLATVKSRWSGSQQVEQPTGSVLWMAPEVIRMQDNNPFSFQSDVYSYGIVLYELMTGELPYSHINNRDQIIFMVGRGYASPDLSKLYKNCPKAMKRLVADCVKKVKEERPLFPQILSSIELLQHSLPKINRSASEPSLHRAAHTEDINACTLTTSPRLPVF

The assay concerns the target human RAF1 (Homo sapiens, UniProt P04049). As to the kind of experiment: Protein kinase assay (33P-ATP filter binding), human RAF1, 10-dose IC50. Conditions: MEK1 (K97R) substrate 3 micromolar, ATP 10 micromolar, read-out: RAF-1 IC50. The assay is classed as biochemical. The essentials: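 Human RAF1 phosphorylated human MEK1 (K97R) substrate at 3 µM with 10 µM ATP (³³P), in pH 7.5 HEPES buffer with MgCl2, EGTA, Brij35, BSA, Na3VO4 and DTT. Reactions ran for 2 hr at room temperature with P81 filter capture.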
Regarding `Cc1ccc(NC(=O)N2CC[C@H](OCC(F)(F)F)C2)cc1-c1cc(OCCO)nc(N2CCOCC2)c1` [Example 137, (3S)-N-[3-[2-(2-hydroxyethoxy)-6-(morpholin-4-yl)pyridin-4-yl]-4-methylphenyl]-3-(2,2,2-trifluoroethoxy)pyrrolidine-1-carboxamide], the concentration for half-maximal inhibition (IC50) (as a rule, the midpoint of a concentration-inhibition curve) is below 0.01 µM.

For `Cc1ccc(NC(=O)N2CC[C@@H](C(F)(F)F)C2)cc1-c1cnc(OC2CCOCC2)c(N2CCOCC2)c1` (single isomer, unassigned) [Example 119], the IC50 was below 0.01 µM. Take `Cc1cc(F)c(NC(=O)N2CC[C@@H](CC(F)(F)F)C2)cc1-c1cc(O[C@H](C)CO)nc(N2CCOCC2)c1` (single isomer, unassigned) [Example 182]: the 50% inhibitory concentration (IC50) was below 0.01 µM. Regarding `Cc1cc(F)c(NC(=O)N2C[C@@H](O)C[C@@H](C(F)(F)F)C2)cc1-c1cc(OCCO)nc(N2CCOCC2)c1` [Example 44, (3S,5R)-N-[2-fluoro-5-[2-(2-hydroxyethoxy)-6-(morpholin-4-yl)pyridin-4-yl]-4-methylphenyl]-3-hydroxy-5-(trifluoromethyl) piperidine-1-carboxamide], the IC50 was below 0.01 µM.

Regarding `Cc1ccc(NC(=O)N2CC[C@@H](C(F)(F)F)C2)cc1-c1cnc(OCCO)c(N2CCOCC2)c1` (single isomer, unassigned) [Example 14], the 50% inhibitory concentration (IC50) is below 0.01 µM. `Cc1cc(F)c(NC(=O)N2CC[C@@H](C(F)(F)C(F)(F)F)C2)cc1-c1cc(OCCO)nc(N2CCOCC2)c1` (single isomer, unassigned) [Example 84]: the concentration for half-maximal inhibition (IC50) is below 0.01 µM. On to `Cc1ncc(NC(=O)N2CC[C@H](C(F)(F)F)C2)cc1-c1cnc(OCCO)c(N2CCOCC2)c1` (single isomer, unassigned) [Example 17], for which the half-maximal inhibitory concentration (IC50) is below 0.01 µM. The figure for `C/C(C#N)=C1/CCN(C(=O)Nc2cc(-c3cc(OCCO)nc(N4CCOCC4)c3)c(C)cc2F)C1` [Example 98, (3E)-3-(1-cyanoethylidene)-N-[2-fluoro-5-[2-(2-hydroxyethoxy)-6-(morpholin-4-yl)pyridin-4-yl]-4-methylphenyl]pyrrolidine-1-carboxamide] is below 0.01 µM; for `Cc1cc(F)c(NC(=O)N2CCC(CC(F)(F)F)C2)cc1-c1cc(OCCO)nc(N2CCOCC2)c1` (stereo in doubt) [Example 37, (3R)-N-[2-fluoro-5-[2-(2-hydroxyethoxy)-6-(morpholin-4-yl)pyridin-4-yl]-4-methylphenyl]-3-(2,2,2-trifluoroethyl)pyrrolidine-1-carboxamide] it is below 0.01 µM; for `Cc1ccc(NC(=O)N2CC[C@@H](OC(F)(F)F)C2)cc1-c1cc(OCC(C)(C)O)nc(N2CCOCC2)c1` [Example 149, (3R)-N-[3-[2-(2-hydroxy-2-methylpropoxy)-6-(morpholin-4-yl)pyridin-4-yl]-4-methylphenyl]-3-(trifluoromethoxy)pyrrolidine-1-carboxamide] it is below 0.01 µM.

On to `Cc1ccc(NC(=O)N2CC[C@@H](CC(F)(F)F)C2)cc1-c1cc(OC2(CO)CC2)nc(N2CCOCC2)c1` [Example 231, (S)-N-(3-(2-(1-(hydroxymethyl)cyclopropoxy)-6-morpholinopyridin-4-yl)-4-methylphenyl)-3-(2,2,2-trifluoroethyl)pyrrolidine-1-carboxamide], for which the half-inhibitory concentration (IC50) is below 0.01 µM. `Cc1cc(F)c(NC(=O)N2CCC3(COC3)C2)cc1-c1cc(OCCO)nc(N2CCOCC2)c1` [Example 41, N-[2-fluoro-5-[2-(2-hydroxyethoxy)-6-(morpholin-4-yl)pyridin-4-yl]-4-methylphenyl]-2-oxa-6-azaspiro[3.4]octane-6-carboxamide]: the IC50 is 0.01 to 0.1 µM. Consider `Cc1ccc(NC(=O)N2CC[C@@H](CC(F)(F)F)C2)cc1-c1cc(OC[C@@H](C)O)nc(N2CCO[C@H](C)C2)c1` [Example 228, (S)-N-(3-(2-((R)-2-hydroxypropoxy)-6-((R)-2-methylmorpholino)pyridin-4-yl)-4-methylphenyl)-3-(2,2,2-trifluoroethyl)pyrrolidine-1-carboxamide], for which the half-inhibitory concentration (IC50) is below 0.01 µM.
